According to US11285144B2, “Use of CDK8 inhibitors to treat diseases of inflammation and autoimmunity” (THE BROAD INSTITUTE, INC., priority 2016, dated 2022):
Entries after “also recorded” stand apart in the source; their conditions may differ.

Experiments:
tubulin = test: Tubulin polymerization, cell-free assay; format: biochemical
Excerpt: FIG. 4—DOS-derived IL-10 hit BRD0326 perturbs microtubule dynamics. (a) Chemical structure of BRD0326. […] (c) BRD0326's IL-10 enhancing activity depends on its stereochemistry (EC50's=mean of 2 independent experiments). (d) Transcriptional responses elicited by BRD0326 correlate with those induced by small molecule modulators of microtubule dynamics.

[1] = system: Zymosan A-stimulated BMDCs; test: Cytokine production by Zymosan A-stimulated BMDCs; format: cell-based, mouse; conditions: zymosan A-stimulated BMDCs
Excerpt: Towards the goal of identifying new mechanisms of IL-10 regulation, 59,346 small molecules were screened for the ability to enhance IL-10 production by activated bone marrow-derived dendritic cells (BMDCs) using a high-throughput assay developed previously (Sundberg et al., PNAS 111:12468-12473, 2014). Compounds were derived from both commercial collections and structurally and skeletally diverse libraries prepared by diversity-oriented synthesis (DOS). More than 60 hit compounds were identified that reproducibly enhance IL-10 production in a concentration-dependent manner (Table 1). Three distinct chemotypes were prioritized for follow-up based on potency and an initial analysis of structure-activity relationship (SAR) with respect to core scaffold, stereochemistry and side chains (FIG. 2a).
(§1) The pyridinyl tetrahydroquinoline BRD6989 (10) emerged as a prioritized hit in the screen (FIG. 2a and Table 2). […] Thus, BRD6989 enhances IL-10 production in activated human and murine macrophages and dendritic cells by a mechanism that appears most pronounced following stimulation of toll-like receptors-7 (TLR7) and TLR8 by R848.

R848-stimulated BMDCs [2] = test: Cytokine production by R848-stimulated BMDCs; format: cell-based, mouse
Excerpt: as §1
(§2) Pre-treatment with these CDK8/19 inhibitors recapitulated the IL-10 potentiating activity of BRD6989 in both BMDCs (FIG. 9b) along with human DCs derived from two independent donors in the context of R848 stimulation (FIGS. 9c and 10a).

[3] = system: human, monocyte-derived DCs; test: IL-10 production in human monocyte-derived DCs stimulated with R848; format: cell-based
Excerpt: as §1, §2

R848-stimulated BMDCs [4] = test: IL-10 mRNA levels in BMDCs following R848 stimulation; format: cell-based, mouse; conditions: pre-treatment, then R848 stimulation
Protocol: FIG. 5—Cellular activities of the IL-10 hit BRD6989. […] (d) Effect of BRD6989 on IL-10 production in human DCs stimulated with R848 (each point corresponds to mean±S.D.; n=3 biological replicates from 1 independent experiment using cells derived from 1 donor). (e) Chemical structure of the pan-SIK inhibitor HG-9-91-01. (f) Effect of pre-treating BMDCs with HG-9-91-01 (0.5 μM) or BRD6989 (5 μM) on IL-10 mRNA levels following stimulation with R848 (each point corresponds to mean±S.D.; n=4 biological replicates from 1 independent experiment; *, P<0.05; ***, P<0.001 using unpaired, two-tailed Student's t test). Data from all panels is representative of at least 2 independent experiments.
Based on its ability to selectively potentiate IL-10 production by a mechanism that appears temporally distinct from CREB activation, BRD6989 was prioritized for MOA studies.

[5] = system: BMDCs stimulated with R848 or Zymosan A; test: Co-treatment of BMDCs with T-5224, cytokine production; format: cell-based, mouse; conditions: T-5224 100 μM
Protocol: FIG. 13—Modulation of c-Jun/AP-1 links CDK8 inhibition to enhanced IL-10 production. (a) CDK8 responsive signaling pathways in activated BMDMs as identified by the highly parallel reporter gene assay TF-Seq. Reporter data is integrated for time points between 15 min 4 hr from 1 independent experiment. Dashed lines correspond to FDR<0.05 as corrected by Benjamin-Hochberg testing. (b) Relative to all highly expressed genes, JunB binding sites are enriched among the subset of genes induced by CDK8 inhibition (see Online Methods). […] Data is representative of 2 independent experiments. […] Data is representative of 2 independent experiments. […] CpG, synthetic CpG-containing oligonucleotide; FLA, flagellin A; LPS, lipopolysaccharide; MDP, muramyldipeptide; Pam3cys, synthetic triacylated lipoprotein; poly(I:C), polyinosinic-polycytidylic acid; SeV, Sendai virus; TDB, trehalose-6,6-dibehenate.
FIG. 15—CDK8 inhibition enhances AP-1 activity during innate immune activation. (a) Time course of AP-1 reporter activity in BMDMs pre-treated with dCA (0.1 μM) or BRD6989 (5 μM) prior to stimulation with the indicated viruses or microbial ligands for the indicated time points (each point corresponds to TF-Seq reporter data derived from 1 independent experiment). […] Data is from 1 independent experiment. (c) Chemical structure of the c-Fos/AP-1 inhibitor T-5224. […] Data in panels (c,d) are representative of 2 independent experiments. CpG, synthetic CpG-containing oligonucleotide; FLA, flagellin; LPS, lipopolysaccharide; MDP, muramyldipeptide; Pam3cys, synthetic triacylated lipoprotein; Poly(I:C), polyinosinic-polycytidylic acid; SeV, Sendai virus; TDB, trehalose-6,6-dibehenate.
Given the presence of an AP1 consensus motif in IL-10 and evidence that potentiation of MAP kinase signaling can increase IL-10 production (Saraiva et al., Nat Rev Immunol 10:170-81, 2010; Wang et al., Nat Commun 5:3479, 2014; Na et al., Science Signaling 8:2015), it was hypothesized that increased AP-1 activity resulting from reduced c-Jun Ser243 phosphorylation may mediate activation of IL-10 following CDK8 inhibition.

CS(=O)(=O)N1[C@H](C#N)[C@H](c2ccc(C#Cc3cccc(F)c3)cc2)[C@H]1CO [BRD0326]
tubulin / microtubule polymerization (tubulin): suppressed microtubule polymerization; also recorded: suppresses tubulin polymerization
IL-10 production [1]: potentiates IL-10 production by Zymosan A-stimulated BMDCs to a similar degree as PGE2

Cn1ncc2cc(-c3cnc(N)c(Cl)c3N3CCC4(CCNC4=O)CC3)ccc21 [CCT251921]
IL-10 production (R848-stimulated BMDCs [2]): recapitulate the IL-10 enhancing activity of BRD6989
IL-10 production [3]: recapitulate IL-10 potentiation by BRD6989

COc1ccc(N(C(=O)Nc2c(C)cccc2C)c2cc(Nc3ccc(N4CCN(C)CC4)cc3)ncn2)c(OC)c1 [HG-9-91-01, reference compound]
IL-10 mRNA levels (R848-stimulated BMDCs [4]): elevate Il-10 mRNA immediately following microbial stimulation without greatly extending the duration of this response

O=C(O)CCc1cc(C(=O)c2ccc(OC3CCCC3)cc2O)ccc1OCc1ccc2c(=O)[nH]oc2c1 [T-5224]
production of IL-6 or TNFα on co-incubation with dCA ([5]; R848): does not affect production of IL-6 or TNFα
IL-10 production on co-treatment with dCA ([5]; R848 or Zymosan A): suppressed IL-10 production; also recorded: suppresses the IL-10 enhancing activity of dCA
IL-10 increase induced by HG-9-91-01 on co-treatment ([5]; Zymosan A): did not affect; also recorded: does not affect up-regulation of IL-10 or suppression of IL-6

CN(C)C/C=C/C(=O)Nc1ccc(C(=O)Nc2cccc(Nc3ncc(Cl)c(-c4c[nH]c5ccccc45)n3)c2)cc1 [THZ-1]
IL-10 production (R848-stimulated BMDCs [2]): not enhanced
